According to patent US12016837B2, “Halogenated esters of cyclopropanated unsaturated fatty acids for use in the treatment of neurodegenerative diseases” (Synaptogenix, Inc., priority 2013, dated 2024):
Values belong to the molecule of their own block, whether it stands above or below them.

Columns and labels:
PKC-ε [1] = biological target: T1, PKC-ε (Homo sapiens, UniProt Q02156); assay: PKC-ε activation: incorporation of 32P-inorganic phosphate from gamma-32P-ATP; assay type: biochemical
T1 sequence (Q02156 1-737): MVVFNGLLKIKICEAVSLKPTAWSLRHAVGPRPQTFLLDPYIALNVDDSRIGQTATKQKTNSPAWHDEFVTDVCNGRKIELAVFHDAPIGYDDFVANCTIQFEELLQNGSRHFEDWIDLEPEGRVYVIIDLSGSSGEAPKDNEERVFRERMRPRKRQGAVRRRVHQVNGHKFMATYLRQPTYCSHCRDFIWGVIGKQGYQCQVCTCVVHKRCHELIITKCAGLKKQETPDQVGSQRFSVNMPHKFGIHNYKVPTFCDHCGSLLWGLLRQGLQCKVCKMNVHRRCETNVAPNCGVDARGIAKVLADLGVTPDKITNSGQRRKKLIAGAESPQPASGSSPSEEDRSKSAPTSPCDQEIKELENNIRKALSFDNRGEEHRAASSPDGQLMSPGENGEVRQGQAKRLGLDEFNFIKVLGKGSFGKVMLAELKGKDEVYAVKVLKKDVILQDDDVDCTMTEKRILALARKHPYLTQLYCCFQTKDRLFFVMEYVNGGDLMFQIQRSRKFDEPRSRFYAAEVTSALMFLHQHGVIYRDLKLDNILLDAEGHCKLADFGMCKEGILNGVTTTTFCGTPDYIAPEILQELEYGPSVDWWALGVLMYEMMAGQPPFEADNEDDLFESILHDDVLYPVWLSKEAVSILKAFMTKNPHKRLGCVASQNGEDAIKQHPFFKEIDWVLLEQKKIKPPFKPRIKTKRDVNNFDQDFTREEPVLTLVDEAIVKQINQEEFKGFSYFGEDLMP
Procedure: Example 4: PKC-ε activation by DCPLA-EtF3 versus DCPLA methyl ester. […] Sen A, Alkon D L, Nelson T J, J. Biol. Chem. 287(19): 15947-58 (2012). PKC-ε activation by DCPLA-EtF3 was measured by measuring the incorporation of 32P-inorganic phosphate from gamma-32P-ATP by recombinant human PKC-ε.
Example 5: PKC-ε activation by 1,1,1-trifluoropropan-2-yl DCPLA. PKC-ε activation by 1,1,1-trifluoropropan-2-yl DCPLA was measured by measuring the incorporation of 32P-inorganic phosphate from gamma-32P-ATP by recombinant human PKC-ε. […] Activation started at 0.01 nM and was biphasic, consistent with a low and a high affinity binding site for DCPLA.

PKC-ε [2] = biological target: T1, PKC-ε; details: earlier research, cited from earlier work

concentration of peak PKC-ε activation (PKC-ε [1]; FIG. 1): 0.1 to 1 nM
potency as PKC-ε activator relative to DCPLA methyl ester (PKC-ε [1]; FIG. 1, more potent than DCPLA methyl ester): approximately 1000 times
Structure (SMILES): CCCCCC1CC1CC1CC1CCCCCCCC(=O)OCC(F)(F)F (stereo not drawn) [DCPLA-EtF3, DCPLA-trifluoroethyl ester]
extent of PKC-ε activation compared with DCPLA methyl ester (PKC-ε [1]; FIG. 1, comparison in words): approximately the same extent of activation as DCPLA methyl ester
potency compared with bryostatin-1 (PKC-ε [1]; comparison in words): approximately equal to that of bryostatin-1

Structure (SMILES): CCCCCC1CC1CC1CC1CCCCCCCC(=O)OC (stereo not drawn) [DCPLA methyl ester]
concentration of maximum PKC-ε activation (PKC-ε [2]): 0.1 µM
potency as PKC-ε activator relative to unesterified DCPLA (PKC-ε [2]; more potent than unesterified DCPLA): approximately 100 times

concentration at which PKC-ε activation started (PKC-ε [1]; FIG. 2): 10 pM
potency compared to unmodified DCPLA (PKC-ε [1]; FIG. 2, comparison in words): superior potency
shape of PKC-ε activation response (PKC-ε [1]; FIG. 2, consistent with a low and a high affinity binding site): biphasic
Structure (SMILES): CCCCCC1CC1CC1CC1CCCCCCCC(=O)OC(C)C(F)(F)F (stereo not drawn) [1,1,1-trifluoropropan-2-yl DCPLA]
